Data from article PMC4520450, “Procyanidins Negatively Affect the Activity of the Phosphatases of Regenerating Liver” (PLoS ONE, 2015).

What was measured:
Caco-2 cell model = tested on: Caco-2 cell model; design: method as in PMID 23885956; settings: within 24h; cited from earlier work
PTP1B = biological target: T1, PTP1B (Homo sapiens, UniProt P18031); assay: DiFMUP assay for PTP1B, TCPTP, VHR; format: biochemical; settings: 12.5 μM, 30 min incubation, 20 μM DiFMUP, 50 nM enzyme
T1 construct: made in house
T1 sequence (P18031 1-435): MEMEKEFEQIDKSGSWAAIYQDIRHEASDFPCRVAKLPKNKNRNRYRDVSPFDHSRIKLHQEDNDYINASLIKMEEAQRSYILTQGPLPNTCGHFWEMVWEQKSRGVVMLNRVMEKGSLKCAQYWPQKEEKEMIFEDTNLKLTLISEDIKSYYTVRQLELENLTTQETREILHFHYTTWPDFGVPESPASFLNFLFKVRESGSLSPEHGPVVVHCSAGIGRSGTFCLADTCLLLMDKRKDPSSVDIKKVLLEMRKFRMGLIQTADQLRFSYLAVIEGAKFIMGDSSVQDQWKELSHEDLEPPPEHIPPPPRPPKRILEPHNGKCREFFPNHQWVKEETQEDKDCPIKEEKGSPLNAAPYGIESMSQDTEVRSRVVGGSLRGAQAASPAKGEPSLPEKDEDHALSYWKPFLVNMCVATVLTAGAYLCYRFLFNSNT
Description: As an extension of our studies we included PTP1B, VHR and TCPTB as examples for phosphotyrosine specific phosphatases in our activity studies, because tea extracts were reported to inhibit PTP1B [43]. For comparison with PRL-3, these proteins were used in the same concentration (50 nM) as PRL-3 and DiFMUP was also used as a substrate in 20 μM concentration. The enzymes were incubated with three different concentrations of procyanidin C2 (9) for 30 min before the measurement.
Fig 3 Effect of procyanidin C2 (9) on the phosphatase activity of VHR, PTP1B and TCPTP using DiFMUP as a substrate. Proteins were incubated with compound 9 for 30 min., phosphatase activity measurements were performed using 20 μM DiFMUP. Phosphatase activity in the absence of compound 9 was set as 100%. Data represent means ± standard errors of the mean (n = 3).
DiFMUP assay for PTP1B, TCPTP, VHR: In a final reaction volume of 100 μL the PTPs (50 nM final concentration) were incubated with […] of procyanidin C2 (9) for 30 minutes at 25°C. The buffer conditions were pH 7.2, 4-/2-Hydroxyethyl)-1-piperazineethanesulfonic acid (HEPES) 25 mM, EDTA 2.5 mM, DTT 2.0 mM, NaCl 124.4 mM. After the incubation time 20 μL DiFMUP was added to reach a final concentration of 20 μM. On a Tecan safire2 (Tecan, Salzburg, Austria) plate reader dephosphorylation of the substrate to its fluorescent product was monitored by following the emission at […] for 10 minutes. All measurements were done in triplicates, and the experiments were repeated at least three times. The slopes of the initial phases were obtained by linear regression of the data points. The normalized reaction rates were plotted versus the log of the inhibitor concentrations and the IC50 values were obtained by fitting the curves using the one site competition model of GraphPad Prism (GraphPad Software, Version 5). Due to the high water solubility of 9 DMSO was not required and measurements were done in assay buffer only.

Row | Structure (SMILES) | permeation (Caco-2 cell model) | PTP1B phosphatase activity compared to the control (PTP1B)
1 | Oc1cc(O)c2c(c1)O[C@H](c1ccc(O)c(O)c1)[C@@H](O)[C@@H]2c1c(O)cc(O)c2c1O[C@H](c1ccc(O)c(O)c1)[C@@H](O)C2 [Procyanidin B3 (8), Procyanidin B3] | up to 0.2% | 
2 | Oc1cc(O)c2c(c1)O[C@H](c1ccc(O)c(O)c1)[C@@H](O)[C@@H]2c1c(O)cc(O)c2c1O[C@H](c1ccc(O)c(O)c1)[C@@H](O)[C@@H]2c1c(O)cc(O)c2c1O[C@H](c1ccc(O)c(O)c1)[C@@H](O)C2 [Procyanidin C2 (9), Procyanidin C2] |  | 75–85%
